Reference: paper PMC9065145, “Open label safety and efficacy pilot to study mitigation of equine recurrent uveitis through topical suppressor of cytokine signaling-1 mimetic peptide” (Scientific Reports, 2022)
Read-outs that look alike come from different tables or passages of the source. Ends that are not written are not given here. palmitoyl‑Lys = palmitoyl-lysine

Key:
[1] = test system: experimentally induced uveitis; parameters: method as in PMID 27703302, PMID 26094775; details: mice, topical application as simple eye drop; cited from earlier work
induced uveitis = details: cited from earlier work
[2] = test system: experimental autoimmune encephalomyelitis (a rodent model of multiple sclerosis); parameters: method as in PMID 21788442, PMID 21131060, PMID 33737712; details: peritoneal administration; cited from earlier work
[3] = test system: equine recurrent uveitis (ERU); type: in vivo, horse; details: for Response to mimetic: symbols not defined
Description: A priori ERU patients with confirmed ERU but lacking severe ophthalmic decrements (evidence of chronicity), were optimal for enrollment in clinical trial. However, given the unmet need presented by ERU, horses with uncontrolled ERU-mediated inflammation were also enrolled (even with ophthalmic decrement), given that peptide efficacy could be assessed. Reduction in hyperemia was established as the primary endpoint evaluation of peptide efficacy. A priori power analysis established that nine patients would be required to assess a significant decrease in hyperemia, based on historical data from the institution. Ten total patients were enrolled through direct contact with Dr. Plummer. […] No exclusions were made, with all participants noted in Table 1. All procedures were conducted on equine patients subsequent to owner consent.
Ten horses (7 geldings and 3 mares) diagnosed with ERU were enrolled in a short-term, open-label trial to assess the efficacy of topical SOCS1 KIR. The administration of the SOCS1 KIR peptide was in the context of a therapeutic treatment. The horses of varied breed (appaloosa, quarter horse, miniature, and paint- aged 5–21) enrolled in the trial, presenting with acute or insidious disease, were admitted into the University of Florida Veterinary Hospital for 4–7 days to begin treatments with topical SOCS1 KIR. The horses admitted to the clinic were closely evaluated for efficacy and possible negative effects of the treatment. Examinations included intraocular pressure measurement, slit lamp biomicroscopy, and direct and indirect ophthalmoscopy as possible. 200 µg of SOCS1 KIR was administered in 100 µL topically, which was a small volume that prevented reflex tear formation and possible peptide elimination. Seven of 10 patients presented with bilateral disease for a total evaluation of 17 eyes to assess peptide efficacy (Table 1). After hospitalization, ERU patients were returned to their owners, who continued peptide administration from home. The horses underwent complete physical and ophthalmic examinations at day 0, day 3, day 14, and day 42. During the ophthalmic examinations, the horses were scored for discomfort, hyperemia, and aqueous flare using a modified MacDonald-Shadduck System[35] by both the attending veterinary ophthalmologist and four additional masked veterinary ophthalmologists. Safety outcomes at each observation period included: (i) ocular irritation scores (utilizing the modified MacDonald-Shadduck scoring system-); (ii) number of new cases of ocular infections; (iii) number of horses affected with peptide-mediated damage to the eye; (iv) intraocular pressure (mmHg); and (v) ERG b-wave amplitudes to assess retinal function.
Specific rationale is as follows: Given the novelty of the use of topical SOCS1-mimetic peptide, the administration of peptide in this pilot study was ethically conducted in open-label fashion, without randomization, so that rescue medications could be administered, if necessary. […] A single investigator (C.P.) was aware of the drug allocations and the results of clinical evaluations. However, 4 masked veterinarians were utilized to obtain the clinical scoring obtained in Fig. 4E. Given the open enrollment utilized in this pilot study and the administration of drug by patient owners at home, confounders could not be controlled. Placebo medications were not utilized, although SOCS1 mimetic peptide was provided as compassionate use as specific owners noted symptom resumption during drug dry out period (not statistically analyzed).
Experimental data are presented as mean ± standard error of the mean […]. All statistical analyses were performed using GraphPad Prism version 8 software (GraphPad Software, La Jolla, CA, USA). For the in vivo assessment of ERU recovery, paired students t tests were utilized. The data were deemed statistically significant if P ≤ 0.05. […]

[4] = test system: experimentally induced uveitis; parameters: method as in PMID 27703302, PMID 26094775; details: rats, topical application as simple eye drop; cited from earlier work
[5] = test system: pJAK2 (1001–1013) peptide; assay: Competitive inhibition binding assay; details: 5 µg/mL biotinylated pJAK2 pre-incubated with increasing soluble SOCS1-KIR (8-500, printed mg/mL), RT, then direct binding assay; semi-logarithmic fit R2 ≥ 0.95; n = 3
Method: Direct binding assays were performed at room temperature (RT) for 2 h as previously described[34] with modifications. Briefly, Polystyrene 96-well flat bottom plates were seeded with SOCS1 KIR peptide (500 µg/mL) in 0.05 M carbonate-bicarbonate buffer (pH 9.6). The plates were washed 4 times in the wash buffer (Phosphate-buffered saline in 0.05% Tween-20) followed by incubation for 2 h in blocking buffer (3% bovine serum albumin (BSA), 3 mM ethylenediaminetetraacetic acid (EDTA), 0.1% gelatin, and 0.05% Tween 20) and then washed 4 times. Serial dilutions of biotinylated phosphorylated JAK2 (pJAK2) in assay diluent (2% BSA, 3 mM EDTA, 0.01% gelatin, and 0.05% Tween 20) (10, 5, 2.5, 1.25, 0.625, 0.312 µg/mL) were then added to the coated plates for 90 min followed by washing 7 times. Streptavidin- horseradish peroxidase (1:4000, HRP) [BD Biosciences, Cat# 554066] was then added for 30 min followed by 12 wash cycles. Finally, 100 µL 3,3′,5,5′-Tetramethylbenzidine (TMB) substrate [BD Biosciences, Cat# 555214] was added for 30 min followed by assessment with spectrophotometer readings at an absorbance of 450 nm. For competitive Inhibition assays, 5 µg/mL biotinylated pJAK2 was pre-incubated with varying concentrations of SOCS1-KIR ([…]) for 1 h at RT prior and then, a direct binding assay was performed. […]

[6] = test system: lupus pathologies in preclinical models; details: cited from earlier work
Description: (§1) Many of the uveal tract destructive cytokines produced by infiltrating T lymphocytes are dependent on Jak2 for either production or signal transduction[38],[46]. […] Endogenous SOCS1 binds to the activation loop of JAK2, inhibit ...

SOCS1-/- mice = details: cited from earlier work
Description: as §1

[7] = target: T1, pJAK2 activation loop peptide (Equus caballus); assay: ELISA-type direct plate binding assay
T1 chain: LPQDKEYYKVKEP

[8] = ERU horses, topical, not reaching statistical significance

## DTHFRTFRSHSDYRRI [SOCS1-KIR]
[1]
  experimentally induced uveitis: mitigated experimentally induced uveitis
Induced uveitis; induced uveitis rodent studies
  chemokines CCL2, CCL20 and CXCL9 and chemokine receptors CCR2, CCR4, CCR6 and CXCR3: decreases
Induced uveitis; rodent models of uveitis, topical administration to the eye
  TH1- and TH17-associated cytokines and IL-10: suppresses both TH1- and TH17- associated cytokines, while promoting the production of IL-10
[2]
  progression of experimental autoimmune encephalomyelitis: inhibited progression of experimental autoimmune encephalomyelitis
[3]; ERU horses other than patient 2, 4 horses also received diclofenac and/or atropine
  resolution of inflammatory processes coinciding with administration (number of horses): eight of the remaining 9 horses
[3]; ERU horses, by 6 weeks of topical treatment, four masked veterinarians, n = 8, statistically significant
  reduction in clinical scoring, masked veterinary scoring of ocular photographs: 75%
[3]; ERU horses, topical
  patients responsive to administration as a monotherapy: four of the ten patients
[3]; ERU horses, topical 200 µg in 100 µl twice a day, 6-week evaluation, modified MacDonald-Shadduck score, n = 14 eyes, p < 0.01, paired t test
  reduction in hyperemia clinical scoring: 40%
[3]; ERU horses, topical 200 µg in 100 µl twice a day, 6 weeks, modified MacDonald-Shadduck score, n = 14, p < 0.01
  reduction in aqueous flare: 50%
[3]; ERU horses, topical 200 µg in 100 µl twice a day, 6 weeks, n = 8, eyes without discomfort omitted, p < 0.05
  reduction in overall discomfort: near complete reduction
[3]; [8]
  hypopyon: consistent improvements
  intraocular pressure: consistent improvements
[3]; ERU horses, the refractory patients had severe disease
  patients refractory to mimetic treatment: 3/10
[3]; PT1: Appaloosa gelding, 21 years, severe disease, blind OS, bilateral, plus diclofenac/atropine, 9 months
  Response to mimetic: + +
[3]; PT1: severe disease, plus diclofenac/atropine
  Response to mimetic dryout period: yes
[3]; Pt 3: Miniature gelding, 16 years, severe disease, bilateral, monotherapy, lost to followup
  Response to mimetic: + + +
[3]; Pt 4: Paint mare, 16 years, moderate disease, plus atropine, 2 months
  Response to mimetic: + + +
[3]; Pt 5: Appaloosa gelding, 17 years, mild disease, bilateral, monotherapy, 8 months
  Response to mimetic: + + +
[3]; Pt 5: mild disease, monotherapy
  Response to mimetic dryout period: yes
[3]; Pt 7: Appaloosa gelding, 16 years, mild, bilateral, monotherapy, 3 months
  Response to mimetic: + + +
[3]; Pt 7: mild, monotherapy
  Response to mimetic dryout period: yes
[3]; Pt 9: Appaloosa mare, 14 years, moderate disease, bilateral, plus diclofenac/atropine, 8 months
  Response to mimetic: + + +
[3]; Pt 9: moderate disease, plus diclofenac/atropine
  Response to mimetic dryout period: yes
[3]; in vivo
  drug related negative events, long-term use: no observed drug related negative events
  systemic immune suppression: no observed systemic immune suppression
[3]; owner-noted, after return of inflammation in the peptide dry-out period, four owners, not quantitated
  discomfort and inflammation when treatment was resumed (compassionate use): subsequent decreases in discomfort and inflammation
[3]; severe ERU, minimal sight in one eye, SOCS1-KIR 2 mg/ml topical, inflammation persisted, euthanised
  clinical improvement, patient 2: very modest clinical improvement
[4]
  experimentally induced uveitis: mitigated experimentally induced uveitis
[5]
  signal intensity of pJak2 (1001–1013) binding to plate bound SOCS1-KIR peptide: semi-logarithmic decrease in the signal intensity
[6]; peritoneal administration, preclinical models
  lupus pathologies: reduced lupus pathologies
[6]; spontaneous lupus model, peritoneal injection
  circulating memory T cells and Foxp3 high T lymphocytes: decreased circulating memory T cells and increased Foxp3 high T lymphocytes
SOCS1-/- mice; peritoneal administration
  perinatal lethality of SOCS1-/- mice: rescued SOCS1-/- mice from perinatal lethality
SOCS1-/- mice; rodent model of SOCS1 genetic deficiency, peritoneal injection
  circulating memory T cells and Foxp3 high T lymphocytes: decreased circulating memory T cells and increased Foxp3 high T lymphocytes

## {palmitoyl‑Lys}-DTHFRTFRSHSDYRRI [SOCS1-KIR mimetic peptide]
[7]
  Kd: 1700 nM
